Read-outs that look alike come from different tables or passages of the source.
Columns and labels:
[1] = molecular target: T1, caspase-8 (Homo sapiens, UniProt Q14790); assay: IC50 assay with recombinant caspase-8; format: biochemical; settings: for IC50: mean±s.d.
T1 construct: purchased Millipore (Billerica, MA)
Method: (§1) Caspase-3 and 8 – The enzyme was pre-incubated with inhibitor in assay buffer (100 mM HEPES pH 7.4, 0.1% CHAPS, 10% Sucrose) for 10 min at 37 °C.
(§2) To determine the IC50 values of the compounds towards δ-secretase, cathepsin-S, cathepsin-L, caspase-3 and caspase-8, purified recombinant enzyme was incubated in appropriate assay buffers in the presence of increasing concentrations of inhibitors. The formation of fluorescent product was monitored in duplicate reactions and the data were fit to appropriate equations to calculate the IC50 values.

[2] = molecular target: T2, δ-secretase (Homo sapiens, UniProt Q99538); assay: IC50 assay with purified recombinant δ-secretase (AEP), substrate Cbz-Ala-Ala-Asn-AMC; format: biochemical
T2 construct: tested with purified active δ-secretase, IC50 values for the top 8 candidates were calculated; purchased Sino Biological (Beijing, China)
T2 sequence (Q99538 18-323 limits assumed): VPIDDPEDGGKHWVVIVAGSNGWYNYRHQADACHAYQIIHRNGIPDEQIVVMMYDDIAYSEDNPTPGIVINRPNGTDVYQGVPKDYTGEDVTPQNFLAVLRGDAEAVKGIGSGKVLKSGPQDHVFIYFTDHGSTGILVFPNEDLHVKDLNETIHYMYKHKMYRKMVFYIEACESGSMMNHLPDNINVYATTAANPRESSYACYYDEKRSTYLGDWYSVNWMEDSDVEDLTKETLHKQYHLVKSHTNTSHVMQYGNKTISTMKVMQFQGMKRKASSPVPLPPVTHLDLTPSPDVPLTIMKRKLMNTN
Method: δ-secretase – 50 nM enzyme was pre-incubated with inhibitor in assay buffer (50 mM Sodium Citrate pH 5.5, 0.1% CHAPS, 60 mM Na2HPO4, 1 mM EDTA) for 10 min at 37 °C. The reaction was initiated on addition of 10 μM Cbz-Ala-Ala-Asn-AMC (Bachem).
as §2

[3] = molecular target: T2, δ-secretase; assay: DTT and L-cysteine reversibility of δ-secretase inhibition; format: biochemical; settings: 10 mM DTT or L-cysteine, inhibitor at its IC50
[4] = molecular target: cathepsin-L (Homo sapiens, UniProt P07711); assay: IC50 assay with cathepsin-L; format: biochemical; settings: for IC50: mean±s.d.
Method: Cathepsin-L – 100 nM enzyme was pre-incubated with inhibitor in assay buffer (100 mM Sodium Acetate pH 5.5, 1 mM EDTA) for 10 min at 37 °C. The reaction was initiated on addition of 25 μM substrate (D-Val-Leu-Lys-AMC (Bachem).
as §2

[5] = molecular target: T3, δ-secretase in Pala cells (Homo sapiens, UniProt Q99538); assay: δ-secretase inhibition in intact Pala cells; settings: for IC50 towards δ-secretase in Pala cells: intact cells, 2 h incubation, mean±s.d.
T3 sequence (Q99538 18-433): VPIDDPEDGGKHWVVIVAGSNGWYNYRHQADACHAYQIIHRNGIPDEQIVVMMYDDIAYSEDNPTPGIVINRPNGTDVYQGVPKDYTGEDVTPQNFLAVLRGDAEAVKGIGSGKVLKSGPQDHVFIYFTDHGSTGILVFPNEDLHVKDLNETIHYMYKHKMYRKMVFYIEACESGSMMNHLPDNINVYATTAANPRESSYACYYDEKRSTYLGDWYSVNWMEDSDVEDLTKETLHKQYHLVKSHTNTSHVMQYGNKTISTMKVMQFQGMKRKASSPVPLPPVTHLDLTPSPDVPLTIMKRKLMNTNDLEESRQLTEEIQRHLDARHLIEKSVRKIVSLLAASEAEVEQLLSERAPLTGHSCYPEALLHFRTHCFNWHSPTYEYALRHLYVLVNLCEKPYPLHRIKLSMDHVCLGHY

[6] = molecular target: T4, caspase-3 (Homo sapiens, UniProt P42574); assay: IC50 assay with recombinant caspase-3; format: biochemical; settings: for IC50: mean±s.d.
T4 construct: purchased Millipore (Billerica, MA)
T4 sequence (P42574 29-175 limits assumed): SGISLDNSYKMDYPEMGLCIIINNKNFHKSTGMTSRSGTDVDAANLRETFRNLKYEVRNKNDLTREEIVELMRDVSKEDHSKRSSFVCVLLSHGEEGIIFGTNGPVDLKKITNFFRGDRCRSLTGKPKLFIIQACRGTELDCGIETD
T4 sequence (P42574 176-277 limits assumed): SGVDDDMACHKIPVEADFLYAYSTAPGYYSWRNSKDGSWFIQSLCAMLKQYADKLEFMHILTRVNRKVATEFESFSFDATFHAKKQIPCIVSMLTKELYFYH
Method: as §1, §2

[7] = molecular target: T5, cathepsin-S (Homo sapiens, UniProt P25774); assay: IC50 assay with recombinant cathepsin-S; format: biochemical; settings: for IC50: mean±s.d.
T5 construct: purchased Athens Research and Technology (Athens, GA)
Method: Cathepsin-S – 100 nM enzyme was pre-incubated with inhibitor in assay buffer (100 mM NaH2PO4 pH 6.5, 100 mM NaCl) for 10 min at 37 °C. The reaction was initiated on addition of 25 μM substrate (Boc-Val-Leu-Lys-AMC (Bachem).
as §2

[8] = system: HepG2 cells; assay: COMET assay and micronucleus assay in HepG2 cells; format: cell-based, human; settings: 50 μM, 24 h
Method: Human hepatocellular carcinoma HepG2 cells were used to determine the genotoxicity of the compounds. The Comet Assay (single cell gel electrophoresis) was performed according to the protocol provided in the Trevigen Kit (4250-050-K). Briefly, cells were pre-treated for 24 h with vehicle control or 50 μM compounds. Cells were harvested, embedded in low-melt agarose and submerged in Lysis Buffer for 45 min at 4 °C. After incubation in Alkaline Unwinding Solution (300 mM NaOH, 1 mM EDTA) for 20 min, the cells were subjected to electrophoresis in Alkaline Unwinding Solution at 300 mA for 30 min. Slides were washed with 70% ethanol, dried and stained with SYBR Green for 30 min at room temperature. Nicked DNA was measured as percentage of tail DNA. One hundred comets were scored for each sample[39].
HepG2 cells were treated with vehicle or 50 μM compound for 24 h. Cells were washed with PBS, followed byincubation at a ratio of 1:19 in a hypotonic solution (75 mM KCl/0.9% NaCl) for 10 min at 37 °C. Next, the cells were fixed with methanol:glacial acetic acid (3:1) for 15 min at 37 °C, then rinsed and dried. Cells were stained with DAPI (2 μg ml^−1) for 30 min in the dark at room temperature, rinsed with water, dried and mounted with glycerol. One thousand cells per dish were analysed for each experiment; three independent experiments were performed.

[9] = molecular target: CYP2C19 (Homo sapiens, UniProt P33261); assay: CYP inhibition screening in microsomes; settings: pH 7.4
[10] = system: Caco-2 monolayer; assay: Caco-2 monolayer permeability screen; settings: 10 µM, 2 h
Method: Supplementary Table 3: Caco-2 permeability and BBB-PAMPA permeability
For CaCo-2 permeability assay, cells were incubated with 10 µM of these reagents in
buffers for 2 h, and the receiver side buffer is removed for analysis by LC/MS/MS. Efflux […]
LLOQ: Lower Limit of Quantification; Papp: apparent permeability.

[11] = molecular target: T6, CYP1A2 (Homo sapiens, UniProt P05177); assay: CYP inhibition screening in microsomes; settings: pH 7.4
T6 sequence (P05177 1-516): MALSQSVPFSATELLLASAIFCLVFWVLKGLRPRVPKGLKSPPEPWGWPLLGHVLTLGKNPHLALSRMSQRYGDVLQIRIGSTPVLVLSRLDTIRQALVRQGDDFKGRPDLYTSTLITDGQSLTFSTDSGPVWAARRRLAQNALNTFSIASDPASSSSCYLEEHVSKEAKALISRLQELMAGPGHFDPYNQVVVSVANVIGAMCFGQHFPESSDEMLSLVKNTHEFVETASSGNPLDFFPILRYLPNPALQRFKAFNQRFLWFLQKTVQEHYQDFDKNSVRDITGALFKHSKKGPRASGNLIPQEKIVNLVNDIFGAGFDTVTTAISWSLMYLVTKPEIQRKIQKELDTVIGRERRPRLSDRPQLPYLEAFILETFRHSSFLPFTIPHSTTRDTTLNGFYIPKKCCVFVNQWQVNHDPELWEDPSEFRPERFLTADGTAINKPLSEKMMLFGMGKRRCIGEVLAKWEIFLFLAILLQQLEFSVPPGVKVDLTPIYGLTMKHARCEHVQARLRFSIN

[12] = system: CYP3A; assay: CYP inhibition screening in microsomes; settings: human, pH 7.4, probe testosterone
[13] = molecular target: CYP2C9 (Homo sapiens, UniProt P11712); assay: CYP inhibition screening in microsomes; settings: pH 7.4
[14] = molecular target: CYP3A4 (Homo sapiens, UniProt P08684); assay: CYP inhibition screening in microsomes; settings: pH 7.4, probe midazolam
[15] = molecular target: CYP2D6 (Homo sapiens, UniProt P10635); assay: CYP inhibition screening in microsomes; settings: pH 7.4
[16] = purified recombinant enzyme, mean±s.d., read-out: IC50 AEP (δ-secretase)

Chain of cathepsin-L (P07711 114-333, species assumed): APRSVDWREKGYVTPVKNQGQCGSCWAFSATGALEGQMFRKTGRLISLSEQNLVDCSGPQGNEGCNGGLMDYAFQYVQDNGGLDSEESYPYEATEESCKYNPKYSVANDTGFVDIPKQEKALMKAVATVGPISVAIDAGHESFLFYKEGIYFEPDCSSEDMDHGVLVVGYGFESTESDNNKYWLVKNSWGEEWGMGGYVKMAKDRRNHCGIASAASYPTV
T1 sequence (Q14790 217-374 limits assumed, species assumed): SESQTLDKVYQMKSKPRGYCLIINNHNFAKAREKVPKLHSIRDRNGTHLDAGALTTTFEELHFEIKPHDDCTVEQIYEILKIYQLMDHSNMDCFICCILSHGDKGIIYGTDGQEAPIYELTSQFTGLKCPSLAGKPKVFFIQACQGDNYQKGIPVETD
T1 sequence (Q14790 385-479 limits assumed, species assumed): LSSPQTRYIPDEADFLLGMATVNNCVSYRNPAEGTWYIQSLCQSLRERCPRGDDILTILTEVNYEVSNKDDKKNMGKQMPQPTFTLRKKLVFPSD
T5 sequence (P25774 115-331, species assumed): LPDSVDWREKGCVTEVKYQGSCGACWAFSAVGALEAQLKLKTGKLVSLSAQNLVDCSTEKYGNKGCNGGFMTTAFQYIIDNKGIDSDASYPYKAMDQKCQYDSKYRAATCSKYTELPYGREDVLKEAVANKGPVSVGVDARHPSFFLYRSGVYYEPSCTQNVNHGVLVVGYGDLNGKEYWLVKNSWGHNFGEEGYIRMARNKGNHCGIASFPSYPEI
Chain of CYP2C9 (P11712 whole entry): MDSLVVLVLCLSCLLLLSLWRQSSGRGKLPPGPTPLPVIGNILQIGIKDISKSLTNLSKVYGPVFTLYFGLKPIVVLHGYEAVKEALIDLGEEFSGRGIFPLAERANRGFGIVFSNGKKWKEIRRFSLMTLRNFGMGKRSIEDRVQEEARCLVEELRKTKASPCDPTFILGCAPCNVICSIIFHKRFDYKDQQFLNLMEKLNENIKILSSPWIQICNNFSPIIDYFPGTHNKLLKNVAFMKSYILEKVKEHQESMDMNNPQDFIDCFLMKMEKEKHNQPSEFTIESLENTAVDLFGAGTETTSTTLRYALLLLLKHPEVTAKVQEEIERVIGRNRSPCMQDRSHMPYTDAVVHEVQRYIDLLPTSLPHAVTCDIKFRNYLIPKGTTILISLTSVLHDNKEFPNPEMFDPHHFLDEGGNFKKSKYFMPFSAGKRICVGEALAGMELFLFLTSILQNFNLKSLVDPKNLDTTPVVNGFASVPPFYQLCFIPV
Chain of CYP3A4 (P08684 whole entry): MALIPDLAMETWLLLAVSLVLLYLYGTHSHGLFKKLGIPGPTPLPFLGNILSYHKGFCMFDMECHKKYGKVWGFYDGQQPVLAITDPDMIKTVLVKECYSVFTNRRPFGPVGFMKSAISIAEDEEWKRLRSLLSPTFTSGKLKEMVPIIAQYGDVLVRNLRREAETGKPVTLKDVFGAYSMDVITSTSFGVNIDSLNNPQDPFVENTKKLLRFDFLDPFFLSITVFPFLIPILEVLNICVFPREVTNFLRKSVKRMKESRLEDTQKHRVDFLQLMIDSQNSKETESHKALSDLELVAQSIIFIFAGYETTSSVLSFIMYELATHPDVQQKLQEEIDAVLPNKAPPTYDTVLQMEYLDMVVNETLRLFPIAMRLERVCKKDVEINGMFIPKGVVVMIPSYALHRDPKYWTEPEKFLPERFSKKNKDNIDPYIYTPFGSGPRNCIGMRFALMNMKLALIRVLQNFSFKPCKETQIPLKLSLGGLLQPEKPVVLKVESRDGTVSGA
Chain of CYP2C19 (P33261 whole entry): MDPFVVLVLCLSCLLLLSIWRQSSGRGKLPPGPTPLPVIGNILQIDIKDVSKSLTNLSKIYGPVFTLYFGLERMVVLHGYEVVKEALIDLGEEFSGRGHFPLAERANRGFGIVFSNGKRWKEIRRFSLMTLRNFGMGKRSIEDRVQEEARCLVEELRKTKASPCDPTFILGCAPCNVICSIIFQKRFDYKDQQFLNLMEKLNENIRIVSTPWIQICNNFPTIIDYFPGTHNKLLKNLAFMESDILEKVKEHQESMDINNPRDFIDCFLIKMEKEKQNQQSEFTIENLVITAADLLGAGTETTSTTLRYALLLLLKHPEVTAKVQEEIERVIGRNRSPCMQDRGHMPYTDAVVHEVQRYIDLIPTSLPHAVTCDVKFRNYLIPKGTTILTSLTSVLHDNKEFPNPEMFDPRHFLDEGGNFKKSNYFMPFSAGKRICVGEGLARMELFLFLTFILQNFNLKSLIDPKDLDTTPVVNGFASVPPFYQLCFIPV
Chain of CYP2D6 (P10635 whole entry): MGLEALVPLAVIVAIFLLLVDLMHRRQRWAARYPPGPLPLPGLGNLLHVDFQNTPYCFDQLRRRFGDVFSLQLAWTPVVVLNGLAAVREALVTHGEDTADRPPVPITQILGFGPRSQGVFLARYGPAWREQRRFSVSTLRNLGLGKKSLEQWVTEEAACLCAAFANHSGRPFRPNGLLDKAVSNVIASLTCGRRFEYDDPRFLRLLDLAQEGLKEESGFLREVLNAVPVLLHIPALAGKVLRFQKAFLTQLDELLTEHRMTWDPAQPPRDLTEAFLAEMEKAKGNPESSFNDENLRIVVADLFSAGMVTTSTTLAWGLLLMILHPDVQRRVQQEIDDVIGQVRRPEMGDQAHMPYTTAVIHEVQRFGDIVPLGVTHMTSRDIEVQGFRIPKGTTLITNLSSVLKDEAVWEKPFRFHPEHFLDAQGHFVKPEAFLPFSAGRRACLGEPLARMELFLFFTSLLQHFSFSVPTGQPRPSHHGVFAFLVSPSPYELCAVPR

| IC50 [1] | IC50 [2, 16] | IC50 [4] | IC50 [5] | IC50 towards δ-secretase in Pala cells [5] | IC50 [6] | IC50 [7] | SMILES | recovery of δ-secretase activity on addition of reducing agents [3] | other results |
| --- | --- | --- | --- | --- | --- | --- | --- | --- | --- |
| > 200 µM | 0.71 ± 0.05 µM | 3.79 ± 0.29 µM | 7.86 ± 5.67 µM | slightly larger IC50 values | 44.6 ± 5.01 µM | > 200 µM | N#CSc1cnc(N)s1 [compound 10] | regained a substantial amount of activity |  |
| > 100 µM | 0.21 ± 0.01 µM | > 100 µM |  |  | > 100 µM | > 100 µM | CN(C)c1ccc(N2C(=O)C=CC2=O)cc1 [compound 22] |  | genotoxicity (COMET and micronucleus assay) [8]: show genotoxicity |
| > 100 µM | 2.37 µM | > 100 µM | 0.29 ± 0.21 µM |  | 15.4 ± 7.04 µM | > 100 µM | CCN(CC)c1ccc(CN2CCc3nc(C)[nH]c(=O)c3C2)c(OC)c1 [compound 64] |  | selectivity for δ-secretase compared to caspase-8 [1]: over 40 fold; inhibition at 10 min, 3 µM [9]: 31.6%; inhibition at 10 min, 10 µM [9]: 20.4%; A->B Papp [10]: < LLOQ; B->A Papp [10]: < LLOQ; inhibition at 10 min, 3 µM [11]: 23.7%; inhibition at 10 min, 10 µM [11]: 22.2%; inhibition at 10 min, 3 µM [12]: 1.5%; inhibition at 10 min, 10 µM [12]: -0.1%; selectivity for δ-secretase compared to cathepsin-L [4]: over 40 fold; inhibition at 10 min, 3 µM [13]: 4.6%; inhibition at 10 min, 10 µM [13]: 7.9%; inhibition at 10 min, 3 µM [14]: 0.6%; inhibition at 10 min, 10 µM [14]: 10.1%; selectivity for δ-secretase compared to caspase-3 [6]: about 6 fold; inhibition at 10 min, 3 µM [15]: 34.6%; inhibition at 10 min, 10 µM [15]: 58.3%; selectivity for δ-secretase compared to cathepsin-S [7]: over 40 fold |
| 28.7 ± 11.2 µM | 0.13 ± 0.09 µM | 5.66 ± 0.36 µM | 1.57 ± 0.14 µM | slightly larger IC50 values | > 200 µM | > 200 µM | Sc1nnc(Nc2ccccc2)s1 [compound BB1] | regained a substantial amount of activity | ligand efficiency [2]: 0.75; IC50 ([2]; purified active δ-secretase, read-out: IC50 / potency toward δ-secretase): ~0.13 µM |
